Assay results taken from patent US20240228448A1 (Washington University, priority 2021, published 2024).
Like-named read-outs stand apart in the source and are kept apart here.

Tests used:
[1] = target: S1P3 (Homo sapiens, UniProt Q99500); experiment: competitive S1Ps cell membrane binding assay against [32P]S1P, S1P3; settings: Table 6
[2] = test system: S1P2-5; experiment: competitive S1Ps cell membrane binding assay against [32P]S1P, S1P2-5 reported together; settings: for selectivity over S1P2-5: in words
Text: (§2) One way to measure affinity is use of a general competition binding assay.

[3] = target: S1P5 (Homo sapiens, UniProt Q9H228); experiment: competitive S1Ps cell membrane binding assay against [32P]S1P, S1P5
Chain of S1P5 (Q9H228 whole entry, species assumed): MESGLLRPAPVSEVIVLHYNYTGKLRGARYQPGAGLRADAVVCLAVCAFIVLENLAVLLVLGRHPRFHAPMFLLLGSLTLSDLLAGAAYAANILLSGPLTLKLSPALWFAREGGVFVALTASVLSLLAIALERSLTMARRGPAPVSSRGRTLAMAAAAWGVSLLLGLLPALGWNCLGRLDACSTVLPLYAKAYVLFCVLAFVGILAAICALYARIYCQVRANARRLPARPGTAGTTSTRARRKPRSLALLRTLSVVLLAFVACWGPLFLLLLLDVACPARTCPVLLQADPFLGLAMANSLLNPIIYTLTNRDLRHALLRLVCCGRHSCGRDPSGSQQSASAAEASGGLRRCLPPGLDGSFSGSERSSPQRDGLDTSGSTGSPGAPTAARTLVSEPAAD
Text: as §2

[4] = target: T1, S1P4 (Homo sapiens, UniProt O95977); experiment: competitive S1Ps cell membrane binding assay against [32P]S1P, S1P4; settings: Table 6; read-out: IC50 for S1P4
T1 sequence (O95977 1-384): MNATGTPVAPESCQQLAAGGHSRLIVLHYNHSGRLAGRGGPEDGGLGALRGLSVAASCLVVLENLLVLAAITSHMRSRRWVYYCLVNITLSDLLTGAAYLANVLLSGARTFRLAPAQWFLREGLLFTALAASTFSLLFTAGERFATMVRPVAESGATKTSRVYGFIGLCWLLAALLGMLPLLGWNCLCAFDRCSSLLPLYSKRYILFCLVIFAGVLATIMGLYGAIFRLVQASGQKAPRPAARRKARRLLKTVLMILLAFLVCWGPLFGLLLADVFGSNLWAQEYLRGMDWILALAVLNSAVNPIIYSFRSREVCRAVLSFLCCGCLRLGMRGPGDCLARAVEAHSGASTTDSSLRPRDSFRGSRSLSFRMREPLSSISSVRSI

[5] = target: S1P1 (Homo sapiens, UniProt P21453); experiment: competitive S1Ps cell membrane binding assay against [32P]S1P, S1P1; settings: for IC50 for S1P1 (nM): Table 6, single determinations
Chain of S1P1 (Homo sapiens, UniProt P21453) (P21453 whole entry, species assumed): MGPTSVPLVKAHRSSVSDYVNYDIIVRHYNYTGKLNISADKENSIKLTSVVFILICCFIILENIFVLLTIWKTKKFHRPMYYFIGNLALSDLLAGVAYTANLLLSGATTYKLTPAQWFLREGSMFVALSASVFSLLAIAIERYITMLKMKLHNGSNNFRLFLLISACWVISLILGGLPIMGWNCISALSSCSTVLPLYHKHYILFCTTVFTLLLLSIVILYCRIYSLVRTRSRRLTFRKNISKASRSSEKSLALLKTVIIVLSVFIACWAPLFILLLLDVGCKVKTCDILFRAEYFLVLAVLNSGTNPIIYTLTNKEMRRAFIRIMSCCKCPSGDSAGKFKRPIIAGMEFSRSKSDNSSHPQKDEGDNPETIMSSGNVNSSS
Text: as §2

[6] = target: S1P2 (Homo sapiens, UniProt O95136); experiment: competitive S1Ps cell membrane binding assay against [32P]S1P, S1P2; settings: Table 6
Chain of S1P2 (O95136 whole entry, species assumed): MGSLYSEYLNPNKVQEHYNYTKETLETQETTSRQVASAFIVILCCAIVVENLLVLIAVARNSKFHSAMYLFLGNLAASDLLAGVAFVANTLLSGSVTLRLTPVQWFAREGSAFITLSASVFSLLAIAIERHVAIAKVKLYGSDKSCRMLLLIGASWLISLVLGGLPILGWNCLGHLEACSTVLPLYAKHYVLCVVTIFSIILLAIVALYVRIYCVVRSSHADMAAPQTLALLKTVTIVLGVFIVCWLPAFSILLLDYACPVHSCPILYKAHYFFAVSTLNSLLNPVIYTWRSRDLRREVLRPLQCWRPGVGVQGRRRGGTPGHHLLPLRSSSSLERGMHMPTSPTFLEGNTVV

[7] = target: T2, S1P1 (Mus musculus, UniProt O08530); experiment: PET with [18F]TZ4877 in S. aureus infected mice; type: in vivo; settings: microPET, in words
T2 construct: from tissue; host or cells: living mice (whole body, brain, tissues)
T2 sequence (O08530 whole entry): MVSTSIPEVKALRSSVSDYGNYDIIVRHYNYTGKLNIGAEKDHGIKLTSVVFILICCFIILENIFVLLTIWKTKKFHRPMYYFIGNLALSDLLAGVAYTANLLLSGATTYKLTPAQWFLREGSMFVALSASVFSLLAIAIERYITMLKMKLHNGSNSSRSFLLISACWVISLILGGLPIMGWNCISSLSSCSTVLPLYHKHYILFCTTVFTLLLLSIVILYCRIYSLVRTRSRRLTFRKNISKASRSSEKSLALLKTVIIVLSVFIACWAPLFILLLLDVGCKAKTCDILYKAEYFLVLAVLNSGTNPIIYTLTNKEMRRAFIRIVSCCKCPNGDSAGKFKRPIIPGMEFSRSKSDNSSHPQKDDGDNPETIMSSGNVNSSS
Protocol: Mice were euthanized at 30 min, and S. aureus was injected 24 hours prior to radiotracer injection. […] IHC staining was used for confirmation in infected versus sham controls (FIG. 12E). Increasing signals of the inflammation related cytokines and chemokines were detected in liver.

[8] = test system: S1PR1; experiment: NHP PET brain imaging blocking studies; type: in vivo, nonhuman primate; settings: NHP PET self-blocking, in words
[9] = HPLC radiometabolite analysis of rat plasma and rat brain, [18F]TZ82112; type: in vivo; settings: in words
Text: (§1) Considering the high NHP brain uptake and clinically favorable pharmacokinetics compared to other F-18 S1PR1 radiotracers such as [^18F]FCS1P1 and [^18F]4877, we believe [^18F]TZ82112 is worth to transfer into clinical evaluation to confirm [18F]TZ82112 is the best S1PR1 radiotracer for clinical assessment of the neuroinflammation status by measurement of the S1PR1 receptor expression level. On the other side, as a S1PR1 radiotracer, [^18F]TZ82112 has its limitation for preclinical investigation because it quickly metabolites to form a lipophilic radiometabolite which will increase noise signal for PET measurement of S1PR1 expression in inflamed tissues.

[10] = HPLC radiometabolite analysis of nonhuman primate plasma, [18F]TZ82112; type: in vivo; settings: NHP plasma compared with rat plasma, in words
Text: as §1

[11] = Ex-vivo rat biodistribution and EAE rat PET studies of [18F]TZ82112; settings: in words
[12] = Table 7, read-out: IC50 (nM) S1P2-5
[13] = Table 5, read-out: IC50 (nM) S1P5
[14] = read-out: IC50 (nM) S1P1, Table 7

Chain of S1P3 (Q99500 whole entry, species assumed): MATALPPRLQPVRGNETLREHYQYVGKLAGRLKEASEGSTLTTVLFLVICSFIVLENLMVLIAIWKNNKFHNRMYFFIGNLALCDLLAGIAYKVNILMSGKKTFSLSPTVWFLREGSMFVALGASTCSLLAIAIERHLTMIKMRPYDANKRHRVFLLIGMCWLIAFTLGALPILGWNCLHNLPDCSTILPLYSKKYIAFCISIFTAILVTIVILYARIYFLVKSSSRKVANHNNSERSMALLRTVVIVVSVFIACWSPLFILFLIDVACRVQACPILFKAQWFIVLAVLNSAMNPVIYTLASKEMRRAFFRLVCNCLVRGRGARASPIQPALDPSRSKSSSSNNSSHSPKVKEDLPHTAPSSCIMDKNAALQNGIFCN

Compound | IC50 for S1P3 (nM) [1] | IC50 [2, 12] | selectivity over S1P2-5 [2] | IC50 [3, 13] | IC50 for S1P5 (nM) ([3]; Table 6) | IC50 [4] | IC50 ([5]; IC50 for S1P1, running text) | IC50 for S1P1 (nM) [5] | IC50 [5, 14] | IC50 [6] | IC50 [1] | IC50 ([3]; Table 6, read-out: IC50 for S1P5) | IC50 ([2]; read-out: IC50 for S1P2-5) | brain uptake, infected versus sham mice [7] | brain uptake after pretreatment with cold TZ82112 [8] | radiometabolite in brain tissue ([9]; rat brain tissue samples) | radiometabolite in plasma ([9]; rat plasma) | percentage of the same radiometabolite in plasma [10] | spinal cord uptake compared to the normal controls ([11]; EAE rat model of MS, PET) | brain uptake and washout ([11]; ex-vivo rat biodistribution)
Cc1ccccc1-c1ccc(-c2nc(-c3ccc(CN(C)CC(=O)O)c(F)c3)no2)cc1C(F)(F)F [TZ82-47] | Not fit | > 1000 nM | good selectivity | 77.3 nM | Not fit | > 1000 nM | < 20 nM | Not detected | 7.6 ± 0.2 nM | > 1000 nM | – | – | – | – | – | – | – | – | – | –
Cc1ccccc1-c1ccc(-c2nc(-c3ccc(CN(C)CCCC(=O)O)c(F)c3)no2)cc1C(F)(F)F [TZ82-48] | – | > 1000 nM | good selectivity | 23.1 nM | – | > 1000 nM | < 20 nM | Not detected | 0.8 ± 0.2 nM | > 1000 nM | 189 nM | 194 nM | – | – | – | – | – | – | – | –
OCCOCc1ccc(-c2noc(-c3ccc(OCC[18F])c(C(F)(F)F)c3)n2)cc1 [[^18F]TZ4877] | – | – | – | – | – | – | – | – | – | – | – | – | > 1000 nM | higher uptake in infected mice | – | – | – | – | – | –
CN(CCCO)Cc1ccc(-c2noc(-c3ccc(OCC[18F])c(C(F)(F)F)c3)n2)cc1F [[^18F]TZ82112] | – | – | – | – | – | – | – | – | – | – | – | – | – | – | reduce the its brain uptake | no radioactive metabolite | quickly generated a high percentage of a radiometabolite | much lower | increased spinal cord uptake | high initial brain uptake and good brain washout kinetics
